From patent US10301317B2, “Inhibitors of ERK and methods of use” (Kura Oncology, Inc., priority 2013, dated 2019)

system: phospho-p90 RSK (RSK1 Thr359/Ser363) in A375 (Braf V600E) cells; test: Phospho-p90 RSK ELISA using A375 (Braf V600E) cells; format: cell-based; settings: Homo sapiens, A-375, 2 hours compound treatment, read-out: Cellular Phospho-p90RSK IC50
Method: In preparation for the assay, an ELISA plate with the pre-coated goat anti-mouse antibody (Thermo Scientific) was treated with a mouse anti-human RSK1 antibody (monoclonal, Invitrogen) at 1:800 dilution (150 ng/well) in PBS, and the plate was placed on a plate shaker at 4° C. overnight. […] After two […] of the compound treatment, the supernatant was removed from the cell plate, and cells were lysed in 100 μl per well of cell lysis buffer (Cell Signaling Technologies) containing phosphatase and protease inhibitors (Cell Signaling Technologies) on a plate shaker at 4° C. for 20 minutes. The ELISA plate was washed four times with ELISA wash buffer (Thermo Scientific) prior to addition of 100 μL cell lysate. The lysate was incubated on the ELISA plate with gentle shaking at room temperature for 2 hours. The contents of the wells were removed, and the ELISA plate was washed four times with wash buffer, and incubated with 100 μL per well of anti-phospho-RSK1 (Thr359/Ser363) rabbit monoclonal antibody (Millipore) at dilution of 1:1000 in StartingBlock buffer (Thermo Scientific) on a plate shaker at room temperature for 1 hour. The contents of the wells were removed, the ELISA plate was washed four times with wash buffer, and was incubated with 100 μL per well of goat anti-rabbit HRP (Thermo Scientific) at dilution of 1:3000 in StartingBlock buffer (Thermo Scientific) on a plate shaker at room temperature for 1 hour. The contents of the wells were removed, the ELISA plate was washed four times with wash buffer, and then incubated with 100 μL per well of TMB substrate solution (Thermo Scientific) on a plate shaker at room temperature for 20 minutes. Finally, 100 μL of TMB stop solution (Thermo Scientific) was added to each well and the absorbance is measured at 450 nm on a Tecan plate reader.

| IC50 [µM] | SMILES |
| --- | --- |
| ≤ 0.25 | Cc1ccc(-c2n[nH]c3cc4c(cc23)CN(Cc2cccc(Cl)c2)C(=O)N4)cn1 [Example 58] |
| > 1 | O=C1Nc2cc3[nH]nc(-c4ccc5nncn5c4)c3cc2CN1Cc1cccc(Cl)c1 [Example 59] |
| > 1 | O=C1Nc2cc3[nH]nc(-c4cn[nH]c4)c3cc2CN1Cc1cccc(Cl)c1 [Example 60] |
| > 1 | O=C1Nc2cc3[nH]nc(-c4ccc(=O)[nH]c4)c3cc2CN1Cc1cccc(Cl)c1 [Example 61] |
| 0.25 to 1 | Cc1cc(-c2n[nH]c3cc4c(cc23)CN([C@@H]2CCCN(CC3CC3)C2)C(=O)N4)ccn1 [Example 62] |
| > 1 | Cc1cc(-c2n[nH]c3cc4c(cc23)CN(CCc2ccc(F)cc2)CC(=O)N4)ccn1 [Example 67] |
| 0.25 to 1 | Cc1cc(-c2n[nH]c3cc4c(cc23)CN(C2CCN(Cc3ccccc3)CC2)C(=O)N4)ccn1 [Example 70] |
| ≤ 0.25 | COc1ncc(-c2n[nH]c3cc4c(cc23)CN([C@H](C)c2cccc(Cl)c2)C(=O)N4)cn1 [Example 71] |
| ≤ 0.25 | COc1ncc(-c2n[nH]c3cc4c(cc23)CN(Cc2ccc(F)cc2)C(=O)N4)cn1 [Example 72] |
| ≤ 0.25 | COc1ccc(-c2n[nH]c3cc4c(cc23)CN(Cc2cccc(Cl)c2)C(=O)N4)cn1 [Example 75] |
| ≤ 0.25 | COc1ccc(-c2n[nH]c3cc4c(cc23)CN(Cc2ccc(F)cc2)C(=O)N4)cn1 [Example 76] |
| ≤ 0.25 | O=C1Nc2cc3[nH]nc(N4CCOCC4)c3cc2CN1Cc1cccc(Cl)c1 [Example 78] |
| > 1 | Cc1cc(-c2n[nH]c3cc4c(cc23)CN(CCN)C(=O)N4)ccn1 [Example 83] |
| ≤ 0.25 | COc1ncc(-c2n[nH]c3cc4c(cc23)CN(CCc2cccc(Cl)c2)C(=O)N4)cn1 [Example 86] |
| ≤ 0.25 | COc1ncc(-c2n[nH]c3cc4c(cc23)CN(Cc2cc(F)cc(F)c2)C(=O)N4)cn1 [Example 88] |
| ≤ 0.25 | Cc1ncc(-c2n[nH]c3cc4c(cc23)CN(Cc2cccc(Cl)c2)C(=O)N4)cn1 [Example 90] |

| IC50 [µM] | SMILES |
| --- | --- |
| 0.25 to 1 | COc1ncc(-c2n[nH]c3cc4c(cc23)CN([C@H](C)c2ccc(Cl)cc2)C(=O)N4)cn1 [Example 95] |
| 0.25 to 1 | O=C1Nc2cc3[nH]nc(-c4ccnnc4)c3cc2CN1Cc1ccc(F)cc1 [Example 97] |
| 0.25 to 1 | COc1ncc(-c2n[nH]c3cc4c(cc23)CN([C@H](C)c2cccc(C#N)c2)C(=O)N4)cn1 [Example 100] |
| 0.25 to 1 | O=C1Nc2cc3[nH]nc(-c4ccnnc4)c3cc2CN1CCc1ccc(F)cc1 [Example 110] |
| 0.25 to 1 | C[C@H](c1cccc(Cl)c1)N1Cc2cc3c(-c4ccnnc4)n[nH]c3cc2NC1=O [Example 111] |
| 0.25 to 1 | O=C1Nc2cc3[nH]nc(-c4ccnnc4)c3cc2CN1Cc1ccc(F)cc1F [Example 114] |
| 0.25 to 1 | C[C@H](c1ccc(Cl)cc1)N1Cc2cc3c(-c4ccnnc4)n[nH]c3cc2NC1=O [Example 115] |
| > 1 | O=C1Nc2cc3[nH]nc(-c4ccnnc4)c3cc2CN1[C@H](CO)c1cccc(Cl)c1 [Example 117] |
| ≤ 0.25 | COc1ncc(-c2n[nH]c3cc4c(cc23)CN([C@H](CO)c2cccc(Cl)c2)C(=O)N4)cn1 [Example 118] |
| ≤ 0.25 | O=C1Nc2cc3[nH]nc(-c4ccnnc4)c3cc2CN1[C@@H]1CCCN(Cc2ccccc2F)C1 [Example 121] |
| ≤ 0.25 | O=C1Nc2cc3[nH]nc(-c4ccnnc4)c3cc2CN1[C@@H]1CCCN(Cc2c(F)cccc2F)C1 [Example 122] |
| 0.25 to 1 | O=C1Nc2cc3[nH]nc(-c4ccnnc4)c3cc2CN1Cc1cccc(C(F)(F)F)c1 [Example 124] |
| 0.25 to 1 | COc1ncc(-c2n[nH]c3cc4c(cc23)CN(Cc2cccc(C#N)c2)C(=O)N4)cn1 [Example 125] |
| ≤ 0.25 | COc1cccc(F)c1CN1CCC[C@@H](N2Cc3cc4c(-c5ccnnc5)n[nH]c4cc3NC2=O)C1 [Example 126] |
| 0.25 to 1 | O=C1Nc2cc3[nH]nc(-c4ccnnc4)c3cc2CN1Cc1cc(F)cc(F)c1 [Example 127] |
| > 1 | N#Cc1cccc(CN2Cc3cc4c(-c5ccnnc5)n[nH]c4cc3NC2=O)c1 [Example 128] |
